Experimental data published in PubChem BioAssay (NCI).
Several values for one entry are separate records, joined by “and”; a condition that tells them apart may be missing. Equal entries are not always repeated.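 Growth conditions: 96-well plates. Treatment: test compound, 48 hours, 5 concentrations. Analysis: linear interpolation between bracketing concentrations; unreached endpoints set to highest concentration. GI50 marks 50% less growth. At the TGI there is no net growth.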

Assays:
Experiment in all cases: NCI-60 cell line screen, 48 h
[1] = test system: A549 NSCLC
[2] = test system: HT29 colon
[3] = test system: MCF7 breast
[4] = test system: SK-MEL-2 melanoma
[5] = test system: SK-MEL-28 melanoma
[6] = test system: TK-10 renal
[7] = test system: U251 CNS
[8] = test system: UACC-62 melanoma

Structure (SMILES)	GI50 [1]	TGI [1]	GI50 [2]	TGI [2]	GI50 [3]	TGI [3]	GI50 [4]	TGI [4]	GI50 [5]	TGI [5]	GI50 [6]	TGI [6]	GI50 [7]	TGI [7]	GI50 [8]	TGI [8]
CC1=C([Te]c2ccc(O)cc2)C(=O)c2ccccc2C1=O	0.404 µM	4.18 µM	0.396 µM	1.55 µM	1.49 µM	4.08 µM	2.78 µM	8.15 µM	2.41 µM	6.09 µM	2.67 µM	7.6 µM	1.31 µM	7.28 µM	1.6 µM	4.01 µM
O=C(NO)c1ccc(Cn2c(=O)n(-c3ccccc3F)c(=O)c3ccccc32)cc1	2.74 µM	7.83 µM	2.02 µM	10.5 µM	2.21 µM	> 100 µM	1.29 µM	3.43 µM	1.77 µM	4.25 µM	1.43 µM	5.16 µM	1.55 µM	3.16 µM	1.24 µM	3.02 µM
O=C(Nc1nc2ccc(F)cc2s1)c1cccnc1Nc1ccc(Cl)cc1	3.35 µM	> 33.7 µM	3.1 µM	> 100 µM	2.32 µM	> 100 µM	2.11 µM	6.45 µM	3.47 µM	> 79.3 µM	5.11 µM	> 100 µM	2.88 µM	> 100 µM	2.47 µM	> 100 µM
CC1(C)CCC(C)(C)c2c1ccc(O)c2Cc1c(O)ccc2c1C(C)(C)CCC2(C)C	–	5.57 µM	–	4.4 µM	–	3.83 µM	–	3.19 µM	–	4.93 µM	–	3.87 µM	–	3.18 µM	–	4.33 µM
S=c1nc(Cl)cc2[nH]c(Cl)cn12	–	> 100 µM	–	75.3 µM	–	19.3 µM	–	> 100 µM	–	> 100 µM	–	> 100 µM	–	> 100 µM	–	> 100 µM
COc1ccc(-c2c(-c3cc(OC)c(OC)c(OC)c3)noc2N)cc1	< 0.0124 µM	> 100 µM	< 0.0144 µM	0.796 µM	< 0.01 µM	19.1 µM	0.0188 µM	81.4 µM	0.016 µM	> 100 µM	0.461 µM	> 56.5 µM	< 0.0165 µM	12.6 µM	< 0.01 µM	> 65.2 µM
CNC(=O)Oc1cc(C)c(/C=C/c2cncc(C(=O)NC)c2)c(C)c1	> 25 µM	> 25 µM	> 25 µM	> 25 µM	> 25 µM	> 25 µM	> 25 µM	> 25 µM	18.8 µM	> 25 µM	> 25 µM	> 25 µM	> 25 µM	> 25 µM	13.2 µM	> 25 µM
CC(=O)C1(N=Nc2ccc(S(N)(=O)=O)cc2)CCOC1=O (stereo unspecified)	–	> 100 µM	–	> 100 µM	–	> 100 µM	–	> 100 µM	–	> 100 µM	–	> 100 µM	–	> 100 µM	–	> 100 µM
C[C@H]1[C@H]2[C@H]3CC[C@@H]4[C@@]5(C)C/C(=C/c6cccnc6)C(=O)C(C)(C)[C@@H]5CC[C@@]4(C)[C@]3(C)CC[C@]23CO[C@]1(C)[C@@H](C(=O)/C=C\c1cccnc1)C3	1.22 µM	3.29 µM	1.16 µM	3.73 µM	0.842 µM	6.25 µM	1.21 µM	2.83 µM	1.02 µM	2.2 µM	1.72 µM	8.21 µM	0.964 µM	2.07 µM	0.67 µM	1.67 µM
COc1ccc(-c2cc(-c3ccc(O)cc3)nc3n[nH]c(N)c23)cc1	26.8 µM	> 100 µM	22.6 µM	> 100 µM	16.7 µM	56.8 µM	16.4 µM	35.1 µM	33.6 µM	> 100 µM	29.8 µM	> 100 µM	18.6 µM	46.7 µM	17.2 µM	34.5 µM
O=C(NCc1ccco1)c1ccc(NC2=C(Cl)C(=O)N(Cc3ccccc3)C2=O)cc1	37.2 µM	> 100 µM	35 µM	> 100 µM	3.91 µM	23.8 µM	23.8 µM	55.8 µM	19.9 µM	43.4 µM	30.7 µM	76.7 µM	18.3 µM	44.9 µM	16.7 µM	36.7 µM
Nc1c(C(=O)c2ccc(CCCN3CCOCC3)cc2)cnn1-c1ccc(F)cc1	> 25 µM	> 25 µM	> 25 µM	> 25 µM	> 25 µM	> 25 µM	> 25 µM	> 25 µM	> 25 µM	> 25 µM	> 25 µM	> 25 µM	> 25 µM	> 25 µM	> 25 µM	> 25 µM
CN(C)CCCNC(=O)c1cncnc1Nc1ccc(OCc2cccc(F)c2)c(Cl)c1	1.71 µM	3.37 µM	1.71 µM	3.34 µM	1.56 µM	3.06 µM	2.08 µM	4.07 µM	1.79 µM	3.22 µM	1.84 µM	3.48 µM	1.66 µM	3.26 µM	1.82 µM	3.22 µM
CCS(=O)(=O)Nc1cccc(Nc2c3cccc(C)c3nc3c(C)cccc23)c1OC	0.202 µM	4.02 µM	1.93 µM	10.5 µM	0.168 µM	49.5 µM	10.5 µM	59.8 µM	4.29 µM	> 100 µM	2.24 µM	11.5 µM	0.404 µM	19.8 µM	0.635 µM	> 100 µM
CCCCN(CCCC)CCCn1c(=O)c2c3ccccc3n(C)c2n2nnc(-c3ccccc3)c12	43.9 µM	> 100 µM	7.72 µM	36.3 µM	37.2 µM	> 100 µM	> 100 µM	> 100 µM	> 100 µM	> 100 µM	1.9 µM	22.4 µM	32.9 µM	> 100 µM	22.4 µM	84.4 µM
COc1cc(OC)c(NC(=O)c2cc3ccccc3cc2O)cc1Cl	3.38 µM	10.5 µM	4.88 µM	30.1 µM	2.51 µM	9.08 µM	2.25 µM	6.14 µM	3.6 µM	17.3 µM	3.15 µM	8.57 µM	3.22 µM	10.5 µM	2.87 µM	14.1 µM
CCCCCCCCCCCCOC1C(C(CC(=O)N2CCN(c3cccc(C(F)(F)F)c3)CC2)NS(=O)(=O)c2cc(Cl)cc(Cl)c2)OC2OC(C)(C)OC21 (stereo unspecified)	> 100 µM	> 100 µM	> 100 µM	> 100 µM	> 100 µM	> 100 µM	> 100 µM	> 100 µM	> 100 µM	> 100 µM	> 100 µM	> 100 µM	> 100 µM	> 100 µM	> 100 µM	> 100 µM
CCCCCCc1nc2nc(Cl)c(Cl)nc2[nH]1	4.34 µM	> 100 µM	> 100 µM	> 100 µM	4.08 µM	> 100 µM	5.58 µM	> 100 µM	> 100 µM	> 100 µM	9.9 µM	> 100 µM	6.44 µM	> 100 µM	3.2 µM	> 100 µM
O=c1c2ccccc2c2ccccc2c(=O)n1Cc1ccc2c(c1)OCO2	–	> 100 µM	–	> 100 µM	–	> 100 µM	–	> 80.2 µM	–	> 100 µM	–	> 100 µM	–	> 100 µM	–	> 100 µM
CCc1cc2c(cc1N1CCC(N3CCOCC3)CC1)C(C)(C)c1[nH]c3cc(C#N)ccc3c1C2=O	1.36 µM and 1.51 µM and 1.31 µM	3.05 µM and 3.88 µM and 3.67 µM	0.758 µM and 0.853 µM and 1.51 µM	2.54 µM and 3.42 µM and > 10 µM	1.66 µM and 1.64 µM and 1.34 µM	> 23.8 µM and 15.6 µM and > 10 µM	2.62 µM and 2.86 µM and 5.46 µM	9.13 µM and 9.77 µM and > 10 µM	1.95 µM and 1.87 µM and 2.32 µM	4.48 µM and 4.04 µM and 6.75 µM	1.66 µM and 1.71 µM and 1.42 µM	3.61 µM and 3.95 µM and 3.05 µM	1.33 µM and 1.43 µM and 1.4 µM	2.76 µM and 3.28 µM and 2.96 µM	3.17 µM and 3 µM and 2.64 µM	18.1 µM and 13.7 µM and > 10 µM
COc1cc(-c2ncn(/C=C\C(=O)OC(C)C)n2)cc(C(F)(F)F)c1	0.0609 µM and 0.0783 µM	11.6 µM and 8.63 µM	0.0474 µM and 0.0896 µM	12.3 µM and 3.01 µM	0.0364 µM and 0.0477 µM	1.67 µM and 10.4 µM	0.0676 µM and 0.0501 µM	1.53 µM and 0.489 µM	0.0461 µM and 0.0693 µM	2.24 µM and 8.58 µM	0.271 µM and 0.123 µM	6.91 µM and 5.42 µM	0.0335 µM and 0.0683 µM	5.24 µM and 11.4 µM	0.112 µM and 0.114 µM	2 µM and 3.42 µM
O=C(NCc1ccncc1)C12CC3CC(C1)CC(c1ccc(Cl)cc1)(C3)C2	15 µM	30.8 µM	11.9 µM	25.4 µM	10.2 µM	27.8 µM	14.2 µM	28.1 µM	12.7 µM	25.5 µM	15.3 µM	29.5 µM	14.2 µM	28.6 µM	5.02 µM	18.7 µM
NC1=NCCN1CC(=O)O	> 10000 µM	> 10000 µM	> 10000 µM	> 10000 µM	> 10000 µM	> 10000 µM	> 10000 µM	> 10000 µM	> 10000 µM	> 10000 µM	> 10000 µM	> 10000 µM	> 10000 µM	> 10000 µM	> 10000 µM	> 10000 µM
